US6770782B1, “Process for the production of potassium hydroxy citric acid, and compositions containing the potassium hydroxy citric acid” (Sabinsa Corporation, priority 1995, dated 2004)
“Also recorded” adds a separate entry of the source.

Columns and labels:
citrate lyase = target: T1, citrate lyase (Homo sapiens, UniProt P53396); details: cited from earlier work
T1 sequence (P53396 1-1101): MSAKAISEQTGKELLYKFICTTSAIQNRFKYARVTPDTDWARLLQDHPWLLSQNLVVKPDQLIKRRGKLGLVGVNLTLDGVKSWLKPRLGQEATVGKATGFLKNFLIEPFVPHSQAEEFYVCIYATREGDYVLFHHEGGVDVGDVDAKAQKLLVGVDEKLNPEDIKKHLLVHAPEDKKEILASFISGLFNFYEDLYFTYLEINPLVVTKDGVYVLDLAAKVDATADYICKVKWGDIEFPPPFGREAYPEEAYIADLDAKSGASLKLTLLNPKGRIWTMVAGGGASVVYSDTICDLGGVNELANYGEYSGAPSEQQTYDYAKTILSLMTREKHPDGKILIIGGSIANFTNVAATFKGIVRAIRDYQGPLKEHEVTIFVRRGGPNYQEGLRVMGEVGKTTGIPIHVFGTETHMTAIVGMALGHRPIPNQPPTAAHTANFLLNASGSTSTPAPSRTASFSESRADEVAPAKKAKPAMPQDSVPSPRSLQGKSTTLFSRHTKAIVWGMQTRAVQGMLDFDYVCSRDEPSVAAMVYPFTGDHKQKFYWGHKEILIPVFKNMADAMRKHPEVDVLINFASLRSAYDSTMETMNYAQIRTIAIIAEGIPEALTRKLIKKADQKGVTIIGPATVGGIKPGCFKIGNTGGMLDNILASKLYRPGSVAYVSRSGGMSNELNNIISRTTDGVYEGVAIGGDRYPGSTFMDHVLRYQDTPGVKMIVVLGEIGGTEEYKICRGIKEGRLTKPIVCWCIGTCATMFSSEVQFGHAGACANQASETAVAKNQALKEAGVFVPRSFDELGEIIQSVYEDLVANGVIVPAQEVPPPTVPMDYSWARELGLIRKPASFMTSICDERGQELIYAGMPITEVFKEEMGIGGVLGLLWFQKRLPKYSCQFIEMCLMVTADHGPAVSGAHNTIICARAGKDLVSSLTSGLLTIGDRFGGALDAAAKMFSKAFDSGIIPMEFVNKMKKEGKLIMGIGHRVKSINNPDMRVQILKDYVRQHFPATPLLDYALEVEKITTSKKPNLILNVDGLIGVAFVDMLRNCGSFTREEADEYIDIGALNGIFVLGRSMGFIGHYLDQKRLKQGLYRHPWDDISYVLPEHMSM

[1] = free acid converts to lactone; cited from earlier work
[2] = rats, cited from earlier work
[3] = test system: gluconeogenesis in rat liver; details: HCA-treated rats; cited from earlier work
[4] = in vivo; cited from earlier work
[5] = solubility (product specification); format: physicochemical
[6] = stability of the product in solid state and in aqueous solution; format: physicochemical
Protocol: The stability of the product was evaluated in solid state and in aqueous solution in temperature and humidity conditions as specified below. The following parameters of the product were considered: physical appearance, specific rotation, HCA content by HPLC, lactone content by HPLC. […]
b) 37°±2° C. and 75%±2 relative humidity c) 45°±2° C. and 75%±2 relative humidity
2. In solution form (5% in water)

Molecule	inhibiting the citrate lyase (citrate lyase; lactone form)	stability of the form [1]	Ki (citrate lyase; competitive inhibition, read-out: Ki, competitive inhibitor of citrate lyase) [nM]	affinity of the enzyme for HCA versus affinity for citric acid (citrate lyase; relative to citric acid)	less weight gained than the controls ([2]; 80 day study period) [%]	net reduction in food consumption ([2]; 80 day study period) [%]	food consumption suppressed ([2]; HCA 1% or more of the diet) [%]	rate of gluconeogenesis from lactate or alanine [3]	brain uptake [4]	Solubility ([5]; citrate)	Solubility ([5]; listed as potassium hydroxy citrate)	stable under normal storage conditions ([6]; extrapolated from 90 day stress results)	stable under stress conditions ([6]; higher temperature and higher humidity, solid state and 5% in water) [days]
O=C1C[C@@](O)(C(=O)O)[C@@H](C(=O)O)O1 [HCA in lactone form, hydroxy citric acid lactone]	inactive, or less active	stable											
O=C(O)CC(O)(C(=O)O)C(O)C(=O)O (centres unmarked) [HCA, hydroxycitric acid]		not stable	150	over a hundred times greater	78	4	≥ 10	approximately doubled	negligible				
potassium hydroxy citrate [CITRIN®-K]										Soluble in water, acids and aqueous; also recorded: alcohols. Insoluble in solvents like	water soluble	about 5 years	≥ 90
